Experimental data reported in patent US6008227A, “Process for blocking 5-HT and dopamine uptake with biologically active tropane derivatives” (Wake Forest University, priority 1993, dated 1999).
“Also recorded” adds a separate entry of the source. Like-named read-outs stand apart in the source and are kept apart here.

Columns and labels:
dopamine transporter [1] = biological target: T1, dopamine transporter (Rattus norvegicus, UniProt P23977); test: Displacement of [^125 I]RTI-55 binding to dopamine transporters in rat striatal membranes; conditions: for binding ratio: 5-HT K1 / DA K1, higher numbers demonstrate relatively greater dopamine transporter potency; for Ki: [^125 I]RTI-55 10-20 pM, rat striatal membranes; for displacement of [^125 I]RTI-55 binding, in words: FIG. 1
T1 construct: was used to label dopamine transporters in rat striatal membranes; from tissue; host or cells: rat striatal membranes

5-HT transporter [2] = biological target: T2, 5-HT transporter (Rattus norvegicus, UniProt P31652); test: Displacement of [^3 H]paroxetine binding to 5-HT transporter sites in rat frontal cortex; set-up: from tissue; host or cells: rat frontal cortex; conditions: for selectivity between dopamine and 5-HT transporters, in words: binding assays; for displacement of [^3 H]paroxetine binding, in words: FIG. 2 / text; for times more potent than cocaine at 5-HT transporter sites: vs cocaine, [^3 H]paroxetine binding; for selectivity towards the 5-HT transporter in terms of binding and inhibition, in words: binding and uptake inhibition
dopamine transporter [3] = biological target: T1, dopamine transporter; test: Inhibition of [3H]dopamine uptake into dissociated striatal cells from fetal and adult rat brain; assay type: cell-based; conditions: for uptake ratio: 5-HT uptake IC50 / DA uptake IC50; for inhibition of [3H]dopamine uptake into striatal cells, in words: FIG. 3; for dopamine: 5-HT ratio: regardless of the assay used (binding or uptake)
5-HT transporter [4] = biological target: T2, 5-HT transporter; test: Inhibition of [^3 H]5-HT uptake in dissociated frontal cortex cells from fetal and adult rat brain; assay type: cell-based; set-up: from tissue; host or cells: rat frontal cortex; conditions: for IC50: frontal cortex cells, fetal and adult rat brain; for blocking [^3 H]5-HT uptake in cortical cells, in words: FIG. 4
[5] = read-out: [^3 H] paroxetine K1, [^3 H]paroxetine, rat frontal cortex
[6] = vs cocaine, [^125 I]RTI-55 binding

T1 sequence (P23977 whole entry): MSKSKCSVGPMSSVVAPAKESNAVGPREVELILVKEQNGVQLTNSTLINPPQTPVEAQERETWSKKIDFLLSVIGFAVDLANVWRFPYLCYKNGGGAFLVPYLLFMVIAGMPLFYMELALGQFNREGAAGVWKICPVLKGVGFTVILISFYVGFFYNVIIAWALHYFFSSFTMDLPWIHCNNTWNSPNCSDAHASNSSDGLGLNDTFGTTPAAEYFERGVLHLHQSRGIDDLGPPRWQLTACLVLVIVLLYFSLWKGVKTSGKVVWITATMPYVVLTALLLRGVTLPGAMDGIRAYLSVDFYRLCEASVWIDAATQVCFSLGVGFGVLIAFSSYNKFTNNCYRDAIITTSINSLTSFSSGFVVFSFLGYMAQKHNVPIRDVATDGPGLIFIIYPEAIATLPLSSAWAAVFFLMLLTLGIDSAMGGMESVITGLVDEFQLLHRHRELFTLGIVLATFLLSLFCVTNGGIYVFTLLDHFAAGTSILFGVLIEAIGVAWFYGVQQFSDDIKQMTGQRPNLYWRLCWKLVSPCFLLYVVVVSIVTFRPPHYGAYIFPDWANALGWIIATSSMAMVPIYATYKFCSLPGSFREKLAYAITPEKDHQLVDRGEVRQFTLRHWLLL
T2 sequence (P31652 whole entry): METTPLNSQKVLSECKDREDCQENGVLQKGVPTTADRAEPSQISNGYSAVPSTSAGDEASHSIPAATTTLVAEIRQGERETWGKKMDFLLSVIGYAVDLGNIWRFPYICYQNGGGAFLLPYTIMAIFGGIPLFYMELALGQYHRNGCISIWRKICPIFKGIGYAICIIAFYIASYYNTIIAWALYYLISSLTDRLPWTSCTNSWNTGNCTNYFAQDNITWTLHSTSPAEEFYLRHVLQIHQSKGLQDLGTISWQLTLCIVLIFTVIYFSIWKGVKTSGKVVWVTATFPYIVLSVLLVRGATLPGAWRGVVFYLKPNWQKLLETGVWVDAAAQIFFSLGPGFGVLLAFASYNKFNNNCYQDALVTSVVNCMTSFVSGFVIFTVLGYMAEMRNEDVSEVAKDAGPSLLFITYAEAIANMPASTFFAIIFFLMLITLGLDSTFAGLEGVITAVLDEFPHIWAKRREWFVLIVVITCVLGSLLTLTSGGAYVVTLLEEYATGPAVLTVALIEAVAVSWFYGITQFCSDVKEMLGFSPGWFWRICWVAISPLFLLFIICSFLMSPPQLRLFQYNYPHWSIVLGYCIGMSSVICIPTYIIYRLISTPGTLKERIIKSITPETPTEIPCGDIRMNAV

CCC(=O)C1C(c2ccc3ccccc3c2)CC2CCC1N2C (single isomer, unassigned) [WF-23(1)]
binding ratio (dopamine transporter [1]): 4.2 | Ki (dopamine transporter [1]): 113 ± 26 nM | selectivity between dopamine and 5-HT transporters, in words (5-HT transporter [2]): the same as the racemic mixture of WF-23

CCC(=O)[C@@H]1[C@@H](c2ccccc2C)C[C@@H]2CC[C@H]1N2C (relative stereo) [WF-21]
Ki (5-HT transporter [2]; [5]): > 10000 nM

COC(=O)[C@H]1[C@@H](c2ccccc2)C[C@@H]2CC[C@H]1N2C (relative stereo) [WF-10]
Ki (dopamine transporter [1]): 98.8 ± 12.2 nM

Cc1ccc([C@H]2C[C@@H]3CC[C@H]([C@@H]2C(=O)C(C)C)N3C)cc1 (relative stereo) [WF-17]
Ki (dopamine transporter [1]): 2130 ± 266 nM | Ki (5-HT transporter [2]): > 10000 nM

CCc1ccc([C@H]2C[C@@H]3CC[C@H]([C@@H]2C(C)=O)N3C)cc1 (relative stereo) [WF-16]
Ki (dopamine transporter [1]): 2290 ± 360 nM | Ki (5-HT transporter [2]): > 10000 nM

CCC(=O)[C@@H]1[C@@H](c2ccc3cc(OC)ccc3c2)C[C@@H]2CC[C@H]1N2C (relative stereo) [WF-34]
binding ratio (dopamine transporter [1]): 3.76 | Ki (dopamine transporter [1]): 54.7 ± 15 nM | Ki (5-HT transporter [2]): 206 ± 81 nM

CC(=O)[C@H]1[C@@H](c2ccc(F)cc2)C[C@@H]2CC[C@H]1N2C (relative stereo) [WF-7]
binding ratio (dopamine transporter [1]): 12.1

CC(=O)[C@H]1[C@@H](c2ccc3ccccc3c2)C[C@@H]2CC[C@H]1N2C (relative stereo) [WF-32]
binding ratio (dopamine transporter [1]): 4.27 | Ki (dopamine transporter [1]): 0.248 ± 0.15 nM

CCC(=O)[C@H]1[C@@H](c2ccc(C)cc2)C[C@@H]2CC[C@H]1N2C (relative stereo) [WF-11]
binding ratio (dopamine transporter [1]): 15.9 | Ki (dopamine transporter [1]): 8.2 ± 1.6 nM | times more potent than cocaine in binding to dopamine transporters (dopamine transporter [1]; [6]): 20 times | IC50 (dopamine transporter [3]): 2.21 ± 1.7 nM | uptake ratio (dopamine transporter [3]): 140 | times more potent in inhibiting dopamine uptake than 5-HT uptake (dopamine transporter [3]; uptake assays): 140 times | displacement of [^3 H]paroxetine binding, in words (5-HT transporter [2]): approximately equipotent with cocaine in displacing [^3 H]paroxetine binding | selectivity between dopamine and 5-HT transporters, in words (5-HT transporter [2]): relatively more selective for dopamine transporters | times more potent than cocaine at 5-HT transporter sites (5-HT transporter [2]): twice | IC50 (5-HT transporter [4]): 310 ± 104 nM

CCC(=O)[C@@H]1[C@@H](c2ccc(C)cc2)C[C@@H]2CC[C@H]1N2C (relative stereo) [WF-13]
Ki (dopamine transporter [1]): 764 ± 84 nM | Ki (5-HT transporter [2]): > 10000 nM

CC(=O)[C@@H]1[C@@H](c2ccc(F)cc2)C[C@@H]2CC[C@H]1N2C (relative stereo) [WF-1]
Ki (dopamine transporter [1]): 929 ± 160 nM | Ki (5-HT transporter [2]): > 10000 nM

CCC(=O)[C@H]1[C@@H](c2ccc(C)c3ccccc23)C[C@@H]2CC[C@H]1N2C (relative stereo) [WF-27]
binding ratio (dopamine transporter [1]): 0.358 | Ki (dopamine transporter [1]): 25.1 ± 0.5 nM | IC50 (dopamine transporter [3]): 260 ± 98 nM | selectivity towards the 5-HT transporter in terms of binding and inhibition, in words (5-HT transporter [2]): considerable selectivity towards the 5-HT transporter | IC50 (5-HT transporter [4]): 14.6 nM

CC(=O)[C@H]1[C@@H](c2ccc(C)cc2)C[C@@H]2CC[C@H]1N2C (relative stereo) [WF-4]
binding ratio (dopamine transporter [1]): 12.4 | Ki (dopamine transporter [1]): 9.8 ± 0.5 nM | IC50 (dopamine transporter [3]): 13.8 ± 2.6 nM | uptake ratio (dopamine transporter [3]): 24 | IC50 (5-HT transporter [4]): 330 ± 75 nM

CCC(=O)[C@H]1[C@@H](c2ccc(C(C)(C)C)cc2)C[C@@H]2CC[C@H]1N2C (relative stereo) [WF-26]
binding ratio (dopamine transporter [1]): 0.84

CCC(=O)[C@H]1[C@@H](c2ccccc2C)C[C@@H]2CC[C@H]1N2C (relative stereo) [WF-22]
binding ratio (dopamine transporter [1]): 1.30 | Ki (dopamine transporter [1]; read-out:): 814 ± 220 nM | Ki (5-HT transporter [2]; [5]): 1060 ± 395 nM

COC(=O)[C@@H]1[C@@H](c2ccccc2)C[C@@H]2CC[C@H]1N2C (relative stereo) [WF-6]
Ki (dopamine transporter [1]): 2060 ± 545 nM

CC(=O)[C@@H]1[C@@H](c2ccccc2)C[C@@H]2CC[C@H]1N2C (relative stereo) [WF-2]
Ki (dopamine transporter [1]): 7270 ± 1210 nM | Ki (5-HT transporter [2]): > 10000 nM

CC(=O)[C@@H]1[C@@H](c2cccc3ccccc23)C[C@@H]2CC[C@H]1N2C (relative stereo) [WF-15]
Ki (dopamine transporter [1]): 97 ± 21 nM

CCc1ccc([C@H]2C[C@@H]3CC[C@H]([C@H]2C(C)=O)N3C)cc1 (relative stereo) [WF-9]
binding ratio (dopamine transporter [1]): 0.51 | Ki (dopamine transporter [1]): 152 ± 24 nM | IC50 (dopamine transporter [3]): 1160 ± 266 nM | uptake ratio (dopamine transporter [3]): 0.0082 | selectivity towards the 5-HT transporter in terms of binding and inhibition, in words (5-HT transporter [2]): considerable selectivity towards the 5-HT transporter | IC50 (5-HT transporter [4]): 9.5 ± 5.4 nM

CCC(=O)[C@H]1[C@@H](CC)C[C@@H]2CC[C@H]1N2C (relative stereo) [WF-18]
Ki (dopamine transporter [1]): > 50000 nM

CCC(=O)[C@H]1[C@@H](c2cccc3ccccc23)C[C@@H]2CC[C@H]1N2C (relative stereo) [WF-30]
binding ratio (dopamine transporter [1]): 3.91 | Ki (dopamine transporter [1]): 5.34 ± 1.27 nM | IC50 (dopamine transporter [3]): 3.66 ± 1.91 nM | uptake ratio (dopamine transporter [3]): 1.46 | IC50 (5-HT transporter [4]): 5.43 nM

CCC(=O)[C@H]1[C@@H](c2ccc3ccccc3c2)C[C@@H]2CC[C@H]1N2C (relative stereo) [WF-23]
binding ratio (dopamine transporter [1]): 3.1 | Ki (dopamine transporter [1]): 0.2 ± 0.04 nM | times more potent than cocaine at both transporters (dopamine transporter [1]; vs cocaine, dopamine and 5-HT transporter binding): 500-800 times | IC50 (dopamine transporter [3]): 0.027 ± 0.016 nM | uptake ratio (dopamine transporter [3]): 10.0 | inhibition of [3H]dopamine uptake into striatal cells, in words (dopamine transporter [3]): the most potent analog in inhibiting dopamine uptake | dopamine: 5-HT ratio (dopamine transporter [3]): 3-4 | Ki (5-HT transporter [2]): 0.63 ± 0.2 nM | displacement of [^3 H]paroxetine binding, in words (5-HT transporter [2]): the most potent compounds in displacing [^3 H]paroxetine binding | selectivity between dopamine and 5-HT transporters, in words (5-HT transporter [2]): like cocaine, with little selectivity between the two transporters | times more potent than cocaine at 5-HT transporter sites (5-HT transporter [2]): 480 times | blocking [^3 H]5-HT uptake in cortical cells, in words (5-HT transporter [4]): significantly more potent than cocaine in blocking [^3 H]5-HT uptake | IC50 (5-HT transporter [4]): 0.27 nM

CCC(=O)[C@H]1[C@@H](C2CCCCC2)C[C@@H]2CC[C@H]1N2C (relative stereo) [WF-19]
Ki (5-HT transporter [2]): > 10000 nM

CCC(=O)[C@@H]1[C@@H](c2ccc3ccccc3c2)C[C@@H]2CC[C@H]1N2C (relative stereo) [WF-24]
binding ratio (dopamine transporter [1]): 6.53 | Ki (dopamine transporter [1]): 2.51 ± 0.82 nM | IC50 (dopamine transporter [3]): 5.9 ± 2.4 nM

CCC(=O)[C@H]1[C@@H](c2ccc3cc(OC)ccc3c2)C[C@@H]2CC[C@H]1N2C (relative stereo) [WF-33]
displacement of [^125 I]RTI-55 binding, in words (dopamine transporter [1]): the most potent of these compounds; also recorded: equipotent in displacing [^125 I]RTI-55 binding | displacement of [^3 H]paroxetine binding, in words (5-HT transporter [2]): the most potent compounds in displacing [^3 H]paroxetine binding | times less potent than WF-23 in displacing [^3 H]paroxetine binding (5-HT transporter [2]; vs WF-23): 4 times | times more potent than cocaine at 5-HT transporter sites (5-HT transporter [2]): 140 times

CCC(=O)[C@@H]1[C@@H](CC)C[C@@H]2CC[C@H]1N2C (relative stereo) [WF-14]
Ki (dopamine transporter [1]): > 50000 nM | Ki (5-HT transporter [2]): > 10000 nM

CCC(=O)[C@H]1[C@@H](c2ccc(-c3ccccc3)cc2)C[C@@H]2CC[C@H]1N2C (relative stereo) [WF-35]
binding ratio (dopamine transporter [1]): 1.88

CC(=O)[C@H]1[C@@H](c2cccc3ccccc23)C[C@@H]2CC[C@H]1N2C (relative stereo) [WF-8]
IC50 (dopamine transporter [3]): 20.7 ± 7.7 nM | IC50 (5-HT transporter [4]): 4.55 nM

CC(=O)[C@@H]1[C@@H](c2ccc(C)cc2)C[C@@H]2CC[C@H]1N2C (relative stereo) [WF-3]
Ki (dopamine transporter [1]): 775 ± 57 nM | Ki (5-HT transporter [2]): > 10000 nM

CCC(=O)[C@H]1[C@@H](c2ccc(C(C)C)cc2)C[C@@H]2CC[C@H]1N2C (relative stereo) [WF-31]
binding ratio (dopamine transporter [1]): 0.089 | displacement of [^125 I]RTI-55 binding, in words (dopamine transporter [1]): less potent in displacing [^125 I]RTI-55 than cocaine | Ki (dopamine transporter [1]; read-out:): 615 ± 98 nM | times less potent than cocaine at dopamine transporters (dopamine transporter [1]; [6]): 2.5 times | inhibition of [3H]dopamine uptake into striatal cells, in words (dopamine transporter [3]): considerably less potent in blocking [3H]dopamine uptake | IC50 (dopamine transporter [3]; read-out: DA uptake IC50, striatal cells, fetal and adult rat brain): 5840 ± 2600 nM | displacement of [^3 H]paroxetine binding, in words (5-HT transporter [2]): significantly more potent in displacing [^3 H]paroxetine than cocaine | selectivity towards the 5-HT transporter in terms of binding and inhibition, in words (5-HT transporter [2]): considerable selectivity towards the 5-HT transporter | Ki (5-HT transporter [2]; [5]): 54.5 ± 8.9 nM | times more potent than cocaine at 5-HT transporter sites (5-HT transporter [2]): 8 times | blocking [^3 H]5-HT uptake in cortical cells, in words (5-HT transporter [4]): significantly more potent than cocaine in blocking [^3 H]5-HT uptake | IC50 (5-HT transporter [4]): 46.9 nM | times more potent in inhibiting 5-HT uptake than dopamine uptake (5-HT transporter [4]; uptake assays): 120 times

CCC(=O)C1C(c2ccc3ccccc3c2)CC2CCC1N2C (single isomer, unassigned) [WF-23(2)]
IC50 (dopamine transporter [1]): ~0.03 nM | binding ratio (dopamine transporter [1]): 3.96 | Ki (dopamine transporter [1]): 0.032 ± 0.007 nM | dopamine: 5-HT ratio (dopamine transporter [3]): 3-4 | Ki (5-HT transporter [2]): 0.127 ± 0.05 nM | displacement of [^3 H]paroxetine binding, in words (5-HT transporter [2]): also potent vs. [^3 H]paroxetine binding | selectivity between dopamine and 5-HT transporters, in words (5-HT transporter [2]): the same as the racemic mixture of WF-23
